Legend:
[1] = tested on: Balb/C mice with spinal cord contusion lesion; assay: Spinal cord contusion injury, locomotor recovery scored with the Basso Mouse Scale (BMS); assay type: in vivo
Description: In studies of spinal cord injury in mice, the recovery of the mice in the studies may be monitored and quantified using the Basso Mouse Scale (Basso D. M., et al., Journal of Neurotrauma, Volume 23, No. 5, 635-659 (2006), the entirety of which is hereby incorporated by reference). Using this method, each mouse in such studies may be awarded a score based on the criteria outlined in Table 1 and FIG. 1 of Basso et al., supra,
Spinal cord injury and cortical spinal tract (CST) tracing were performed as described in (Boato et al. 2010). […] A gelfoam patch containing 1 μM the compound of Example 1(i) was then placed on top of the perforated dura (only in the second experiment, see Example 3), the muscles were sutured and the back skin closed with wound clips. Recovery of function after SCI was determined by scoring the locomotor hindlimb performance in the open field with the BMS, a 0-9 rating system based on the BBB scale and specifically designed for the mouse (Basso D. M., et al., Journal of Neurotrauma, Volume 23, No. 5, 635-659 (2006)). Under blind conditions, investigator evaluated the mice over a 4-min time period daily. Before surgery, animals were acclimated to the open field and to handling to prevent fear and/or stress behaviours that could bias the locomotor assessment.

[2] = tested on: CST nerve fibres of mice with spinal cord injury; assay: Cortical spinal tract tracing (BDA-labelled nerve fibres) after spinal cord injury; assay type: in vivo, mouse; conditions: FIG. 4
Description: To anterogradely label the CST, 2 μl of biotinylated dextran amine (10% BDA) were then injected into the motor cortex. BDA-positive CST nerve fibres were visualized by 3,3′-diaminobenzidine staining and counted cranial and caudal to the lesion in serial sections and normalized to the number of labelled fibres in the dorsoventral diameter of the CST in cross sections at T4.
The bars in FIG. 2 represent the percentage of nerve fibres in the area between the end of the CST and the lesion centre (TE-LC) and in the area 0.1, 0.2 or 0.5 mm distal to the lesion centre (0.1, 0.2 or 0.5 mm from LC).
The potential for administration of the compound of Example 1(i) to mice to lead to regeneration of axonal fibres and bridging of the site of injury by reinnervation, following spinal cord injury, was examined. This involved tracking motor neurons by injection of BDA-labelled dextran into the motor cortex.

[3] = tested on: BDNF; assay: BDNF mRNA expression by RT-qPCR in murine primary neurons; assay type: cell-based; conditions: primary mouse neurons, FIG. 5a
Description: (§1) Primary neurons were isolated from brains of E15 mouse embryos.
(§2) Total RNA from cells was extracted using NucleoSpin RNA II extraction kit including DNAse treatment to digest genomic DNA (Macherey & Nagel, Düren, Germany).
(§3) RNA concentration was measured spectrophotometrically at a wavelength of 260 nm. Purity was assessed by the quotient 260/280 nm.
(§4) 250 ng of cell-derived mRNA were reverse transcribed into complementary DNA using moloney murine leukaemia virus (M-MLV) reverse transcriptase, 5× M-MLV buffer, deoxy-NTPs, random primers and RNasin (reagents from Promega, Mannheim, Germany) at 37° C. for 60 min. In order to control for genomic DNA contaminations, RNA was additionally transcribed in the absence of M-MLV reverse transcriptase (RT minus control).
(§5) To measure gene expression, the transcribed cDNA was amplified by quantitative real-time PCR (Stratagen MX Pro, Agilent Technologies Sales & Services GmbH & Co. KG, Waldbronn, Germany) in a final volume of 25 μl with the specific primers in commercial Power SYBR Green Master Mix (Applied Biosystems, Foster City, USA). Expression values were normalized against 18SrRNA expression.
(§6) All PCR primers were purchased from Operon Biotechnologies (Köln, Germany). […]

[4] = tested on: TrkB; assay: TrkB mRNA expression by RT-qPCR in murine primary neurons; assay type: cell-based; conditions: primary mouse neurons, FIG. 5b
Description: as §1, §2, §3, §4, §5, §6

[5] = tested on: BDNF; assay: BDNF mRNA expression by RT-qPCR in murine primary astrocytes; assay type: cell-based; conditions: primary mouse astrocytes, FIG. 6a
Description: as §2, §3, §4, §5, §6

[6] = tested on: TrkB; assay: TrkB mRNA expression by RT-qPCR in murine primary astrocytes; assay type: cell-based; conditions: primary mouse astrocytes, FIG. 6b
Description: as §2, §3, §4, §5, §6

[7] = tested on: TrkB; assay: Immunohistochemical stainings of injured spinal cords for TrkB; assay type: in vivo, mouse; conditions: 4 week treatment; area of injury and peri-lesional tissue; versus vehicle; FIG. 7
Description: Animal tissues were fixated by transcardial perfusion with normal saline followed by ice-cold 4% paraformaldehyde in 0.1 M phosphate-buffered saline. After perfusion, spinal cords were dissected and post-fixed overnight in the same fixative. The next day, the tissues were embedded in Jung-Tissue Freezing Medium (Leica Microsystems Nussloh, Germany) and cut longitudinally along the horizontal plane (40 μm thickness) into six series using a freezing microtome.
For immunostaining, samples were preincubated with 10% normal goat serum dissolved in PBS containing 0.5% Triton X-100 for 30 minutes at room temperature (RT). Incubation with primary antibody (Santa Cruz) was carried out overnight at 4° C. Following repeated washing steps with PBS, secondary antibodies (Jackson ImmunoResearch Laboratories) were applied for 2 hours at RT. After removal of unbound antibodies, sections were mounted.
(§7) For measurement of signal intensity six sections per animal containing the lesion center were analyzed. Micrographs were made in 15 rectangular boxes along the spinal cord covering the lesion and surrounding area. Using ImageJ software (NIH) pictures were converted into the 8-Bit greyscale and the signal intensity for each box was evaluated.

[8] = tested on: viable neurons at the site of spinal cord injury; assay: Histochemical stainings of injured spinal cords for Nissl (viable neurons); assay type: in vivo, mouse; conditions: versus vehicle-treated animals; FIG. 8
Description: Animals were fixated as described above.
For staining of viable neurons the NeuroTrace® 500/525 green fluorescent Nissl stain (Invitrogen) was used. Briefly, after rehydration tissue slices were permeabilized in PBS containing 0.1% Triton X-100 for 10 minutes at room temperature. After washing NeuroTrace solution (100 fold diluted in PBS) was applied to the sections and incubated for 20 minutes at room temperature. After washing, samples were mounted for microscopy.
as §7, with “centre” for “center”, “grayscale” for “greyscale”

Compound	Basso Mouse Scale score better than vehicle treated mice ([1]; Balb/C mice, treated once daily, versus vehicle, FIG. 1)	neurological deficits (Basso Mouse Score) compared to controls ([1]; Balb/C mice, treated once daily, day 2 and 3 and from day 9 until the end of the study, FIG. 1)	neurological outcome (BMS), difference between routes of administration ([1]; systemically (i.p.) versus gel placed at the site of injury, FIG. 2)	BMS subscore paw position of hindlimbs, recovery ([1]; versus vehicle treated mice, where almost completely absent, FIG. 3)	increase in BMS subscore paw position, statistical significance ([1]; versus vehicle, FIG. 3)	number of BDA-labelled axons (CST nerve fibres) compared to controls [2]	production of mRNA encoding BDNF [3]	production of mRNA encoding TrkB [4]	expression of BDNF ([5]; 10^−6M)	expression of TrkB ([6]; 10^−6M)	TrkB immunoreactivity (signal intensity) in spinal cord [7]	Nissl positive cells (viable neurons) at the site of spinal cord injury [8]	effect of AT2R-antagonist on BDNF mRNA increase induced by the compound of Example 1(i) ([3]; combination with Example 1(i))	effect of AT2R-antagonist on TrkB mRNA increase induced by the compound of Example 1(i) ([4]; combination with Example 1(i))	effect of co-treatment with AT2R-antagonist on BDNF expression induced by the compound of Example 1(i) ([5]; co-treatment with Example 1(i))	effect of co-treatment with AT2R-antagonist on TrkB expression induced by the compound of Example 1(i) ([6]; co-treatment with Example 1(i))
CCCCOC(=O)NS(=O)(=O)c1sc(CC(C)C)cc1-c1ccc(Cn2ccnc2)cc1 [Example 1(i), N-Butyloxycarbonyl-3-(4-imidazol-1-ylmethylphenyl)-5-iso-butylthiophene-2-sulfonamide]	approximately 1.5 points	significantly reduced neurological deficits	no statistically significant difference	continuous recovery	statistically significant from day 7 until the end of the observational period	significantly increased	significantly increased	significantly increased	induced expression	induced expression	strongly increased	significant increase	–	–	–	–
Cc1cc(Cn2cnc3c2C[C@@H](C(=O)O)N(C(=O)C(c2ccccc2)c2ccccc2)C3)ccc1N(C)C [PD123319, reference compound]	–	–	–	–	–	–	–	–	–	–	–	–	completely blocked	completely blocked	abrogated	abrogated

— patent publication US8835471B2, “Use of angiotensin II agonists” (Vicore Pharma AB, priority 2010, dated 2014)
